Among the data in BindingDB's records for PubMed 32739648 (n/a, 2020) are IC50 values, retold here.

One may read the IC50 as the concentration at which inhibition is half-maximal.

In the assay the target is Epidermal growth factor receptor (Homo sapiens, UniProt P00533). In words: Inhibition of human EGFR incubated for 1 hrs in presence of ATP by ELISA assay.
Epidermal growth factor receptor, sequence (P00533 whole entry): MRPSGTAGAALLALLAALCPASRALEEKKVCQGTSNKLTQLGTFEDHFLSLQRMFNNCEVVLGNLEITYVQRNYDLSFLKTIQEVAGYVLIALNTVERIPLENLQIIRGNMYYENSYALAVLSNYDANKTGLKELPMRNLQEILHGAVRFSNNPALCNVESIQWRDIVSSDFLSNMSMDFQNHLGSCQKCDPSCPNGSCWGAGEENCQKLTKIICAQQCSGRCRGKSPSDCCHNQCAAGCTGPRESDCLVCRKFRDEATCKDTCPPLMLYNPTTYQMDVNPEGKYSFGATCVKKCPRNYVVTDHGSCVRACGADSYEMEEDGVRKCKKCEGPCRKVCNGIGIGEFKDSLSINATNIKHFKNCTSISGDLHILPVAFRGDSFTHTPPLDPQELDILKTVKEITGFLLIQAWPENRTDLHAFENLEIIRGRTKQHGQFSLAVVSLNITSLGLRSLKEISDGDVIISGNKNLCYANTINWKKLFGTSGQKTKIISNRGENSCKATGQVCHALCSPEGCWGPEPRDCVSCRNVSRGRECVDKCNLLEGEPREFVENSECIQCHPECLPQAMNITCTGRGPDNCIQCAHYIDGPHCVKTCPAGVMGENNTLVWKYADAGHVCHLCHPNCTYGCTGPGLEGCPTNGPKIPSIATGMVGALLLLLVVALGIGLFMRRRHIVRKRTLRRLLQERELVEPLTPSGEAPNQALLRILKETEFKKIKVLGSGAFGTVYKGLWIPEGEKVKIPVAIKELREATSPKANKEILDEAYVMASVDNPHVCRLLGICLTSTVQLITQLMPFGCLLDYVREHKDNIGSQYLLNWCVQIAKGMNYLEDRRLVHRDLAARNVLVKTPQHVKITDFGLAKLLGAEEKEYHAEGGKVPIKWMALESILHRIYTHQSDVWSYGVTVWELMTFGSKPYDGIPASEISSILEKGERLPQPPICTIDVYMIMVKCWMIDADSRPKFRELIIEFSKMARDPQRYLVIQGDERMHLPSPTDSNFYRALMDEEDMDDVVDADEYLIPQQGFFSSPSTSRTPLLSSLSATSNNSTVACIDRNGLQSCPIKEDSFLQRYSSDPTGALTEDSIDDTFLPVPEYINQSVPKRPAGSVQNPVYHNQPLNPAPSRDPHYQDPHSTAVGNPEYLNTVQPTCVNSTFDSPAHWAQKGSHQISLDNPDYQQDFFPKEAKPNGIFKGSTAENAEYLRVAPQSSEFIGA

Consider `CSCC[C@@H](NC(=O)[C@@H](NC(=O)[C@@H](NC(=O)CC(=O)N(O)C/C=C(\C)CC/C=C(\C)CCC=C(C)C)C(C)C)C(C)C)C(=O)O`, for which the IC50 came out at 22 nM.
